From publication PMC9926630, “Simultaneous attenuation of hyperglycemic memory-induced retinal, pulmonary, and glomerular dysfunctions by proinsulin C-peptide in diabetes” (BMC Medicine, 2023)

Key:
[1] = tested on: human retinal endothelial cells (HRECs); assay: Intracellular ROS levels in endothelial cells under HGM conditions; assay type: cell-based; settings: 30 mM glucose 3 days then 5.5 mM 3 days; 1 nM K9-C-peptide or K8 polypeptide, 0.5 µM Trolox, 50 µM cystamine, 1 nM human C-peptide; CellROX green and H2DCFDA, n = 4
Method: (§1) HRECs were purchased from the Applied Cell Biology Research Institute (Cell Systems, Kirkland, WA) and grown on 2% gelatin-coated plates in M199 medium supplemented with 20% FBS, 3 ng/mL basic fibroblast growth factor, 100 U/mL penicillin, and […] streptomycin in a humidified 5% CO2 incubator. Cells were authenticated by short tandem repeat profiling, and subconfluent cells after 7–9 passages were used in experiments. For the experiments, endothelial cells were incubated for 12 h in a low-serum medium supplemented with 2% fetal bovine serum, 0.1 ng/mL basic fibroblast growth factor, and antibiotics. The cells were then treated with 5.5 mM D-glucose for 6 days (normal glucose), 30 mM glucose for 6 days (high glucose), or 30 mM glucose for 3 days followed by 5.5 mM glucose for 3 days (HGM).
Intracellular ROS levels were measured in HRECs using CellROX™ green reagent and 2′,7′-dichlorodihydrofluorescein diacetate (Thermo Fisher Scientific, Waltham, MA, USA) as previously described. Labeled cells on coverslips were mounted in a perfusion chamber and analyzed by confocal microscopy (K1-Fluo). ROS levels were determined at the single-cell level for 30 randomly selected cells in three microscopic fields per experiment (n = 4).

[2] = tested on: TGase; assay: In situ TGase activity in endothelial cells under HGM conditions; assay type: cell-based; settings: 30 mM glucose 3 days then 5.5 mM 3 days, 1 nM K9-C-peptide or K8 polypeptide, 0.5 µM Trolox, 50 µM cystamine, 1 nM human C-peptide, confocal, n = 4
Method: as §1
In situ TGase transamidating activity was measured by confocal microscopic assay as previously described. Briefly, HRECs were treated with 1 mmol/L 5-(biotinamido)pentylamine for 1 h and fixed with 3.7% formaldehyde for 30 min. The cells were then permeabilized with 0.2% Triton X-100 in PBS for 30 min and stained with FITC-conjugated streptavidin (1:200; MilliporeSigma, Burlington, MA, USA) for 1 h. The fluorescence intensities of single stained cells were determined by confocal microscopy (K1-Fluo) for 30 randomly selected cells in three microscopic fields per experiment (n = 4).

[3] = cited from earlier work
Method: However, C-peptide is limited in clinical applications by its short circulating half-life (approximately 30 min) and costly chemical synthesis. Recently, we prepared K9-C-peptide, a recombinant human C-peptide conjugated to ELP, to facilitate long-term systemic delivery of C-peptide. ELPs, derived from human elasti ...

[4] = tested on: insulin-supplemented diabetic (HGM) mice; assay: Body weight, blood glucose, water and food consumption of HGM mice; assay type: in vivo, mouse; settings: 4 weeks of treatment, insulin vs diabetic, K9-C-peptide/K8 on top of insulin, n = 6
Method: Six-week-old male C57BL/6 mice were obtained from DBL (EumSeong, Korea). […] Soo-Yul Kim (National Cancer Center, Goyang, Republic of Korea). Mice were maintained under pathogen-free conditions in a temperature-controlled room with a 12-h light/dark cycle. Diabetic mice were generated by single daily intraperitoneal injections of streptozotocin (50 mg/kg body weight; MilliporeSigma, Burlington, MA, USA) freshly prepared in 100 mM citrate buffer (pH 4.5) for 5 consecutive days, as previously described. The control group mice were injected with an equal volume of the citrate buffer. Mice with fasting blood glucose concentrations ≥ 19 mmol/L, polyuria, and glucosuria were considered diabetic. Mouse blood glucose levels and body weights were monitored weekly. […] One day after implantation of the osmotic pumps, human C-peptide was systemically supplemented by subcutaneous implantation of K9-C-peptide depots as previously described. […] The K9-C-peptide and K8 polypeptide were prepared by inverse transition cycling as previously described. Four weeks after the subcutaneous injections, sera and retinal, lung, and kidney tissues were obtained from the mice and analyzed. All animal experiments conformed to the Guide for the Care and Use of Laboratory Animals (National Institutes of Health; Bethesda, MD, USA) and were approved by the Institutional Animal Care and Use Ethics Committee of Kangwon National University (KW-201204–3).

[5] = Human C-peptide level in mouse serum (ELISA); assay type: in vivo; settings: HGM mice (STZ diabetic, insulin by osmotic pump 4 weeks), 4 weeks after s.c. K9-C-peptide 100 mg/kg or K8 polypeptide 83 mg/kg, injected twice, mean ± SD, n = 6
Method: (§2) One day after implantation of the osmotic pumps, human C-peptide was systemically supplemented by subcutaneous implantation of K9-C-peptide depots as previously described. […] The K9-C-peptide and K8 polypeptide were prepared by inverse transition cycling as previously described. Four weeks after the subcutaneous injections, sera and retinal, lung, and kidney tissues were obtained from the mice and analyzed. All animal experiments conformed to the Guide for the Care and Use of Laboratory Animals (National Institutes of Health; Bethesda, MD, USA) and were approved by the Institutional Animal Care and Use Ethics Committee of Kangwon National University (KW-201204–3).

[6] = Human insulin level in mouse serum (ELISA); assay type: in vivo; settings: HGM mice, insulin by osmotic pump 58.4 pmol/min/kg for 4 weeks, alone or with K8 polypeptide or K9-C-peptide, 10 weeks after streptozotocin, mean ± SD, n = 6
Method: as §2

[7] = tested on: type 1 and type 2 diabetic mice; settings: cited from earlier work
Excerpt: The coincidence of diabetic complications, including DR, DPN, and DKD, has been reported in a number of clinical studies. Among the potential microvascular complications of diabetes, the coincidence of DR and DKD was reported to be high in epidemiological studies of both type 1 and type 2 diabetes. Co-occurrence of microvascular complications has also been observed in diabetic animal models including diabetic mice and rats. Moreover, increased mortality was reported in patients with both DR and systemic vascular diseases, including DKD [[ ...

With `Cc1c(C)c2c(c(C)c1O)CCC(C)(C(=O)O)O2` (stereo not drawn) [Trolox] the “HGM-induced persistent ROS generation in HRECs” value [1] was “inhibited” and the “HGM-induced persistent TGase activation in HRECs” value [2] was “inhibited”.
In the case of `CC(C)C[C@H](NC(=O)[C@H](C)NC(=O)[C@H](CC(C)C)NC(=O)[C@@H]1CCCN1C(=O)[C@H](CCC(N)=O)NC(=O)[C@H](CC(C)C)NC(=O)[C@H](CO)NC(=O)CNC(=O)[C@H](C)NC(=O)CNC(=O)[C@@H]1CCCN1C(=O)CNC(=O)CNC(=O)CNC(=O)[C@H](CC(C)C)NC(=O)[C@H](CCC(=O)O)NC(=O)[C@@H](NC(=O)[C@H](CCC(N)=O)NC(=O)CNC(=O)[C@@H](NC(=O)[C@H](CCC(N)=O)NC(=O)[C@H](CC(C)C)NC(=O)[C@H](CC(=O)O)NC(=O)[C@H](CCC(=O)O)NC(=O)[C@H](C)NC(=O)[C@@H](N)CCC(=O)O)C(C)C)C(C)C)C(=O)N[C@@H](CCC(=O)O)C(=O)NCC(=O)N[C@@H](CO)C(=O)N[C@@H](CC(C)C)C(=O)N[C@@H](CCC(N)=O)C(=O)O` [human C-peptide], the Circulating half-life [3] is given as “approximately 30 min”.
For “insulin: human recombinant insulin delivered by subcutaneous osmotic pump (HGM group)”, the “Effect on blood glucose level (hyperglycemia)” value [4] was “normalized”, the “Effect on body weight” value [4] was “normalized” and the “Effect on water and food consumption” value [4] was “normalized”. For the same compound, the “Serum C-peptide” value [5] was “not detectable” and the Serum human insulin [6] was “in the physiological range”.
In the case of `NCCSSCCN` [cystamine], the “HGM-induced persistent ROS generation in HRECs” value [1] is reported as “inhibited” and the “HGM-induced persistent TGase activation in HRECs” value [2] is reported as “inhibited”.
In the case of `CN(C)c1ccc(O)c2c1C[C@H]1C[C@H]3[C@H](N(C)C)C(O)=C(C(N)=O)C(=O)[C@@]3(O)C(O)=C1C2=O` [minocycline], the “Effect on DR and DKD” value ([7]; DR in type 1 and DKD in type 2 diabetic mice, respectively) is listed as “partially ameliorated” and the “Effect on DPN” value ([7]; type 1 and type 2 diabetic mice (either animal model)) is listed as “failed to improve”.
